Laboratory results published in patent US8816095B2, “Na channels, disease, and related assays and compositions” (Georgetown University, priority 2008, dated 2014).

Tests used:
CWR22rv-1 cells = test: CWR22rv-1 prostate cancer cell death (propidium iodide, FACS); assay type: cell-based, human
Procedure: CWR22Rv1 cells (ATCC, Manassas, Va.) were seeded in 6 well tissue culture plate at density of 300,000 cells/well and maintained in RPMI 1640 (Mediatech, Herndon, Va.) containing 10% fetal bovine serum, 2.5 mM L-glutamine, and penicillin-streptomycin (100 IU/ml and 100 μg/ml, respectively) at 37° C. with 5% CO2. Cells were then switched to serum free RPMI media overnight prior to drug treatment. Compounds were dissolved in 100% dimethylsulfoxide (DMSO) and diluted to the desired concentrations in serum free RPMI. Cells were treated with indicated drug concentrations (in triplicate per treatment point) for 24, 48, 72 hour. After treatment, cells were harvested by trypsinization and fixed in 70% ethanol. The fixed cells were then stained with propidium iodide (50 μg/ml) after treatment with RNase (5 μg/ml). The stained cells were analyzed for DNA content using FACSsort (Becton Dickinson). Cell cycle fractions were quantified with Cell Quest (Becton Dickinson) or ModFit LT (Verity Software House).

hNav1.7 = biological target: T1, hNav1.7 (Homo sapiens, UniProt Q15858); test: Fluorescent (FRET) based sodium channel assay, hNav1.7; assay type: cell-based; details: HEK293 stably transfected with hNav1.7, 20 μM veratridine, read-out: hNav 1.7 IC50
T1 construct: expressed in transfected cells; host or cells: HEK293
Procedure: Two isoforms of the channel were examined: hNav1.5, a cardiac sodium channel associated with arrhythmias, and hNav1.7, an isoform found in the peripheral nervous system.
HEK293 cells stably transfected with either hNav1.5 or hNav1.7 were plated at approximately 11,000-20,000 cells/well in flat bottom, poly-D-lysine coated black-wall, clear-bottom, 384-well plates (Becton Dickinson, Bedford, Mass.), and incubated overnight at 37° C. in a 10% CO2 atmosphere in growth medium. Cells were washed with 0.03 mL of Dulbecco's phosphate buffered saline (D-PBS) containing calcium and magnesium. Cells were then incubated with 0.025 mL of a solution containing 10 μM CC2-DMPE and 0.02% pluronic acid in D-PBS with calcium and magnesium; supplemented with 10 mM glucose, and 10 mM Hepes-NaOH, pH 7.4. […] Afterwards, cells were incubated in the dark at 25° C. for 45 min with 0.025 mL of a solution containing 5 μM DiSBAC2(3) in VIPR-S, in the absence or presence of test compound. At the end of the incubation period, the plate was placed in a FLIPR TETRA instrument (MDS Analytical Technologies, Sunnyvale Calif.), illuminated at 390-420 nm, and fluorescence emissions were recorded at approximately 1 Hz at 460 and 580 nm. Following a 7 second baseline reading, 0.025 mL of VIPR-S containing 10 μM veratridine for Nav1.5 or 20 μM veratridine for Nav1.7 was added to each well, and the emissions of both dyes were recorded for an additional 33 seconds. The change in fluorescence resonance energy transfer (FRET) ratio (F/F0) was calculated as: F/F0=((A460/A580/(I460/I580) where A and I represent the readings after or before addition of veratridine, respectively, at the indicated wavelengths. For I, the readings from 2-5 seconds were averaged, and for A, readings from 3 seconds after the signal had reached a plateau level (usually within 30-40 s) were also averaged. Triplicate measurements were performed for each experimental condition and the data were averaged.

[1] = mouse, in vivo, ip
hERG potassium channels = biological target: T2, hERG potassium channels (Homo sapiens, UniProt Q12809); test: hERG binding assay ([35S]MK-499 displacement); details: [35S]MK-499, HEK-293 hERG membranes
T2 construct: expressed in transfected cells; host or cells: HEK-293 (membranes)
Text: All four compounds were also counter-screened for human ether-a-go-go-related gene (hERG) activity against the radio-ligand MK-0499. Blockade of hERG K^+ channels is widely regarded as the predominant cause of drug-induced QT prolongation. (Aronov, A J Med Chem. 2006 Nov. 16; 49(23):6917-21).
MK-499, a potent hERG blocker, was used in a ligand binding assay to evaluate the binding of test compounds to hERG potassium channels as previously described (Wang, J et al. Am J Physiol Heart Circ Physiol, 2003, 284: H256-H267).^2 Test compounds were incubated with 0.05 nM of radiolabeled MK-499 ([35S]MK-499; specific Activity=1,279,010 μCi/μmol) in an assay buffer solution (70 mM NaCl, 60 mM KCl, 10 mM HEPES/NaOH (pH 7.4), 2 mM MgCl2, 1 mM CaCl2) also containing membranes isolated from HEK-293 cells stably expressing hERG channels in 96 well polypropylene deep-well assay plates at room temperature (25° C.) for >90 min. Assay plates were rinsed three time with buffer (130 mM NaCl, 10 mM HEPES/NaOH (pH 7.4), 2 mM MgCl2, 1 mM CaCl2) and the solution transferred to a Packard FilterMate Universal Harvester apparatus and filtered using PerkinElmer UniFilter-96 GF/C 96-well white microplates pre-soaked with 0.3% BSA (10 mL/L of 30% BSA). Plates were dried overnight at 37° C., or for 2 hrs at 56° C. The bottom of the plates were sealed and 0.025 mL of Microscint 0 was added to each well. The plates were top sealed and counted for 2 min/well in a Packard TopCount Scintillation counter. Test compounds were evaluated in a five point titration format using half-log steps from 0.3 μM to 30 μM. […] Less than 5% of the added radioactivity was retained on the filters. Assays were performed in triplicate.

[2] = tested on: human prostate xenograft PC3; test: PC3 xenograft study; assay type: in vivo; details: mice bearing PC3 xenografts; 10 mg/kg ip every other day
Procedure: Intraperitoneally (ip) 10 mg/kg of racemic (±)-1 and each enantiomer was administered in mice bearing PC3 xenografts (FIG. 16). This dose was administered qd every other day for 24 days and effects on reducing the tumor volume were measured.
PC-3 cell line (ATCC, Manassas, Va.) was cultured in RPMI-1640 with L-glutamine (Mediatech Inc., Herdon, Va.) containing 5% fetal bovine serum (FBS), 2.5 mM L-glutamine at 37° C. with 5% CO2.
Male athymic balbc/nude mice (18-22 g) were injected with 3×106 (0.3 mL) of the human prostate cancer cells (PC3). The human prostate cancer cells were injected in the subcutaneous tissue of the right axillary region of the mice. One week after the injection, the mice were randomly sorted into four groups with 6 mice per group. […] The stock of each compound was added to polyethylene glycol 400 (PEG) (Hampton) and PBS in a 1:1 ratio. The test concentrations were obtained by diluting with PEG/PBS. The tumor-bearing mice received an intraperitoneal injection (IP) with either 10 mg/kg of (±)-1, R-(−)-1 or S-(+)-1 or vehicle control respectively once every other day for 4 weeks. At the same time, the tumor size of each mouse was measured by caliper and calculated by the formula: Length×width×height/2.

T2 sequence (Q12809 whole entry): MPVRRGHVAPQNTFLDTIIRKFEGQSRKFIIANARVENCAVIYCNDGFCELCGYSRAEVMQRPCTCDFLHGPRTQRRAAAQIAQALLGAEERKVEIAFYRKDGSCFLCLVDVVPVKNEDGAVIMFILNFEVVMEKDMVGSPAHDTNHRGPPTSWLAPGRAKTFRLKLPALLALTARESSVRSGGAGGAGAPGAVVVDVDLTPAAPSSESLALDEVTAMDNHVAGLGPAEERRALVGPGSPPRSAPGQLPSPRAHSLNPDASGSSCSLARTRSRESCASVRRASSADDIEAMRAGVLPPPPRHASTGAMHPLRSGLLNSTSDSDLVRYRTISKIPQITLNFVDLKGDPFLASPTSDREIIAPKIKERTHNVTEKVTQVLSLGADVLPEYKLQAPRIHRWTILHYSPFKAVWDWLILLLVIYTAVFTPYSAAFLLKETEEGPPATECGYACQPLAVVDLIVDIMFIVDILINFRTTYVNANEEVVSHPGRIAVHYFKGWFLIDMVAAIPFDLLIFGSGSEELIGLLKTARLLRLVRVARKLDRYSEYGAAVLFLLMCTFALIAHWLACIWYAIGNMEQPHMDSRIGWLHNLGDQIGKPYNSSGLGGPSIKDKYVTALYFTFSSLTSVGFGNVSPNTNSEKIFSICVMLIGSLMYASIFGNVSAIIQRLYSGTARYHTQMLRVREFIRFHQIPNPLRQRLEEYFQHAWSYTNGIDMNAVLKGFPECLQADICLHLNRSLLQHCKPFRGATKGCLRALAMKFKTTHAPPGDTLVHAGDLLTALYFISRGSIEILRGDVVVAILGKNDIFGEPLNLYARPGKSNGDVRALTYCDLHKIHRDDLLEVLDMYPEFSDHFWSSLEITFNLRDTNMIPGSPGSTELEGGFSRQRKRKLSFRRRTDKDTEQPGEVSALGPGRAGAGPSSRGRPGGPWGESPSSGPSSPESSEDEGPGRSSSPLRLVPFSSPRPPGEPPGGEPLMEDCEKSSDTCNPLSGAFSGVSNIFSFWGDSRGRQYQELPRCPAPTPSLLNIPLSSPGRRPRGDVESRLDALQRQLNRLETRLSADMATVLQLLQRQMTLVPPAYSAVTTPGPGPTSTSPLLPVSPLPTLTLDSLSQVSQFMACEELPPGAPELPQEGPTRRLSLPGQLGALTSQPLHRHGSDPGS
T1 sequence (Q15858 whole entry): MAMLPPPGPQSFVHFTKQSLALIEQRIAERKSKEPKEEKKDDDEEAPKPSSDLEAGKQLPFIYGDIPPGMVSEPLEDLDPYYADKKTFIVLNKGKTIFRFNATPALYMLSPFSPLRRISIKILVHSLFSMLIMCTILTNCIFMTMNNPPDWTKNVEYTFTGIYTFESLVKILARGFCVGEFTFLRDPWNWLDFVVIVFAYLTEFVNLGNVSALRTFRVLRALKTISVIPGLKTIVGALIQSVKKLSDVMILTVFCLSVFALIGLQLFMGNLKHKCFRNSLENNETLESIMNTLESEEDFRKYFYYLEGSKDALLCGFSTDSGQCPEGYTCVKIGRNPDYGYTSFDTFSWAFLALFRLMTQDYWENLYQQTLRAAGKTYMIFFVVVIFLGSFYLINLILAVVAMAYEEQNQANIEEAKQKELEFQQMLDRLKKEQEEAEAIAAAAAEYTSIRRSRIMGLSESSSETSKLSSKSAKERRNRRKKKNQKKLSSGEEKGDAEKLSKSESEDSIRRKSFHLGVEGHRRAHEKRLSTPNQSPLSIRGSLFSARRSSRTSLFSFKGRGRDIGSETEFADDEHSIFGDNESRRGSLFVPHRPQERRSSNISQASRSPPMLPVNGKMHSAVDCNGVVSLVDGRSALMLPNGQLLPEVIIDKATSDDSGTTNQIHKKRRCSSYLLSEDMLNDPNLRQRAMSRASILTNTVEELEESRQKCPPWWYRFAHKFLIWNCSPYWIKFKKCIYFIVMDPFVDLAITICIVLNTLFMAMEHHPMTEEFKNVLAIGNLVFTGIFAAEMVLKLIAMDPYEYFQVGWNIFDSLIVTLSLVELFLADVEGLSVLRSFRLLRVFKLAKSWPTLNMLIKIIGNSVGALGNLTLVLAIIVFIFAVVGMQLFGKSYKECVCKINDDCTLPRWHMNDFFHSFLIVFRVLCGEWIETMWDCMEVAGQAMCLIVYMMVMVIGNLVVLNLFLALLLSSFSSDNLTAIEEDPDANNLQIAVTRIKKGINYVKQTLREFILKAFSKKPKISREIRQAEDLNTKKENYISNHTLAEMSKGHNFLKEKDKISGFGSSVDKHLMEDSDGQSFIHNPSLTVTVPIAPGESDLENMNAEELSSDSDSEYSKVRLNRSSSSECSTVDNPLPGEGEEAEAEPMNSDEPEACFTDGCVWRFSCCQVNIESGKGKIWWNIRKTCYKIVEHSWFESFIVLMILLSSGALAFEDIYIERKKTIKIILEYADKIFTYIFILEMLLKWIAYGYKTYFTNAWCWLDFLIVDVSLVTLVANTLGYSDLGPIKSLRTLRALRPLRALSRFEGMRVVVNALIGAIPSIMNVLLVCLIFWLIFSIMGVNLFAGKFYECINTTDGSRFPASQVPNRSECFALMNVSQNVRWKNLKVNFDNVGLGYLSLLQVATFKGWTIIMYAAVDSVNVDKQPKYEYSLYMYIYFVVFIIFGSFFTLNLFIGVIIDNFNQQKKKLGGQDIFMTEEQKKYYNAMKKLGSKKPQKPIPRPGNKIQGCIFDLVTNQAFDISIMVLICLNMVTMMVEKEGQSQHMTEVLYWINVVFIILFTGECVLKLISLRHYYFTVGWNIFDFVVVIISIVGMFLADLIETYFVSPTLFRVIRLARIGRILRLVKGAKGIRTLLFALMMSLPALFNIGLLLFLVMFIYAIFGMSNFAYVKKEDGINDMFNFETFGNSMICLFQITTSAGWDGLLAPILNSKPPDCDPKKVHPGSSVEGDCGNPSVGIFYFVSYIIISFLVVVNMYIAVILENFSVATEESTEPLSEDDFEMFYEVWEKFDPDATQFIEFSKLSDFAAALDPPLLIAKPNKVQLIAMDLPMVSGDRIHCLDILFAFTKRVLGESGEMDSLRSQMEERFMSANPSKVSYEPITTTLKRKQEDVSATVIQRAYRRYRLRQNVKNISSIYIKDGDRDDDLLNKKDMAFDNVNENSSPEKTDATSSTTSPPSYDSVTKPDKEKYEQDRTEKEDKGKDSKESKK

CCCCCCCC(O)(C(N)=O)c1cccc(Cl)c1 (racemic) [(±)-1, 2-(3-chloro-phenyl)-2-hydroxy-nonanoic acid amide]
cell death of CWR22rv-1 cells (CWR22rv-1 cells; 25 μM, after 24 h): marginal effects
cell death of CWR22rv-1 cells (CWR22rv-1 cells; after 72 h): 25%
IC50 (hNav1.7): 1810 nM
acute rotorod toxicity observations [1]: No deaths, spasms, respiratory disease was reported
% inhibition for hERG assay, 0.3 μM (hERG potassium channels; 0.3 μM): 15%
% inhibition for hERG assay, 1 μM (hERG potassium channels; 1 μM): 17%
% inhibition for hERG assay, 3 μM (hERG potassium channels; 3 μM): 15%
% inhibition for hERG assay, 10 μM (hERG potassium channels; 10 μM): 51%
% inhibition for hERG assay, 30 μM (hERG potassium channels; 30 μM): 78%
decrease in tumor volume [2]: 62%
